Measurements published in US8871777B2, “Phenylpyrimidone compounds, the pharmaceutical compositions, preparation methods and uses thereof” (Topharman Shanghai Co., Ltd., priority 2008, dated 2014).
Like-named read-outs stand apart in the source and are kept apart here.

Tests used:
[1] = target: T1, human blood platelet PDE5 (Homo sapiens, UniProt O76074); experiment: PDE5 enzyme inhibition activity test (scintillation proximity); type: biochemical
T1 construct: obtained by suitably treating various tissues and separating the enzyme with FPLC; from tissue; host or cells: human blood platelets
Description: (§1) More specifically, PDE5 and PDE3 were obtained from human blood platelet, and PDE6 was separated from bovine retina. Upon enzyme was separated out, the enzyme inhibition activity test would be carried out immediately. The said enzyme inhibition activity test was performed by directly detecting the scintillation proximity of AMP/GMP using TRKQ7100 and TRKQ7090 kits, which was generally as follows. In the presence of different concentrations of inhibitor and a small amount of substrate, 10 μl of buffer (50 mM Tris/HCl PH 7.5, 8.3 mM MgCl2, 1.7 mM EGTA) was added, and then water was added to a final volume of 100 μl. The reaction was initiated with a fixed amount of enzyme, incubated at 30° C. for 30 min, and then quenched with 50 μl of yttrium silicate beads comprising zinc sulphate. After shaken for 20 min, the reaction mixture was put in dark and settled for 30 min, and then readed on a BECKMAN LS6500 MULTI-PURPOSE SCINTILLATION COUNTER.

[2] = target: T2, PDE6 in bovine retina (Bos taurus, UniProt P11541+P23439); experiment: PDE6 enzyme inhibition activity test (scintillation proximity); type: biochemical; conditions: for PDE6 IC50/PDE5 IC50: selectivity, ratio of IC50 PDE6/IC50 PDE5
T2 construct: obtained by suitably treating various tissues and separating the enzyme with FPLC; from tissue; host or cells: bovine retina
T2 sequence (P11541 2-856 limits assumed): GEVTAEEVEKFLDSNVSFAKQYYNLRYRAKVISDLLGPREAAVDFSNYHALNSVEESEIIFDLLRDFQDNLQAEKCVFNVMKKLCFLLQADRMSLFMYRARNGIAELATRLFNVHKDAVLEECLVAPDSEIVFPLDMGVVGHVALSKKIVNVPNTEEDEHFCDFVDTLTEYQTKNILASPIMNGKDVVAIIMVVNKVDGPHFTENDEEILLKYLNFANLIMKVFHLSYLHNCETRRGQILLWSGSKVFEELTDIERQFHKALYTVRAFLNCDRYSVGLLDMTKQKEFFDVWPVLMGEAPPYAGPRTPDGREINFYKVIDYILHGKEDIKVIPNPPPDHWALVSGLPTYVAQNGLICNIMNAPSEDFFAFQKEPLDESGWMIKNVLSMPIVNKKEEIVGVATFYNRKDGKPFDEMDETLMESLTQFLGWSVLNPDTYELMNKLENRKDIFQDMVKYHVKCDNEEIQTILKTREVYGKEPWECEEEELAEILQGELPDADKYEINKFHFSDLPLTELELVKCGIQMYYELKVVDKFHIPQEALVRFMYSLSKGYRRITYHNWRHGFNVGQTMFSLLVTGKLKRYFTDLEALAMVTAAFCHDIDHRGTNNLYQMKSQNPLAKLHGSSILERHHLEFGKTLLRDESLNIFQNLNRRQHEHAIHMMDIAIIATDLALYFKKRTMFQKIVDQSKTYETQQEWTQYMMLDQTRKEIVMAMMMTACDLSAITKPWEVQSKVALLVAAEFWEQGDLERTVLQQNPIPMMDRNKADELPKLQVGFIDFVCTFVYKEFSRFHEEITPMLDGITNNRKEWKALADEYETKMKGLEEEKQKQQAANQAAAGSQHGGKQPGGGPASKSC
T2 sequence (P23439 2-850 limits assumed): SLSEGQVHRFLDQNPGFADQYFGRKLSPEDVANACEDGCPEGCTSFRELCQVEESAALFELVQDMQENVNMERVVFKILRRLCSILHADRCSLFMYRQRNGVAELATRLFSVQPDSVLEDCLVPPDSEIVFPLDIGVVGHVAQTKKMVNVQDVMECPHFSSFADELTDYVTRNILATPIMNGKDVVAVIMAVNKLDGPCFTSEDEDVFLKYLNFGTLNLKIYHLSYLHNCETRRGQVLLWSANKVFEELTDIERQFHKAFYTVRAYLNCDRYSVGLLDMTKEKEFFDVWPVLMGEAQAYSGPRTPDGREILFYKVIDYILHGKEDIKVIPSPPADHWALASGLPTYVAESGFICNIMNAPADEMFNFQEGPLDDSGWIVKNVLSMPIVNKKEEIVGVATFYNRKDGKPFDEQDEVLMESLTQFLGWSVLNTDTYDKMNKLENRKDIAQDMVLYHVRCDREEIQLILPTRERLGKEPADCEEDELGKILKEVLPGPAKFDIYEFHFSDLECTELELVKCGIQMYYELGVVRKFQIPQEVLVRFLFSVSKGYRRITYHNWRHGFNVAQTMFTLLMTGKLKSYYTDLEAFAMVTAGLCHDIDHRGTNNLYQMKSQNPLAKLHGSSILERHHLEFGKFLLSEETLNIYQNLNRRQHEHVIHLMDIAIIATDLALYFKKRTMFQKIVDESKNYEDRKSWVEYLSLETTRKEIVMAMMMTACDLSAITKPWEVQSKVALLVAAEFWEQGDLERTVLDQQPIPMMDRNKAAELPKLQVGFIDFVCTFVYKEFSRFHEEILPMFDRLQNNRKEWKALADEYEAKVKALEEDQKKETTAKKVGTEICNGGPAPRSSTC
Description: as §1

[3] = PDE6 separated from bovine retina, read-out: PDE6 IC50

SMILES	IC50 ([1]; PDE5 table) [nM]	IC50 ([1]; as repeated in the PDE6 table) [nM]	IC50 [2, 3] [nM]	PDE6 IC50/PDE5 IC50 [2]	IC50 [2] [nM]
CCCOc1ccc(NC(=O)C(F)(F)F)cc1-c1nc(CC)c(CC)c(=O)[nH]1 [Example 98, N-(3-(4,5-diethyl-1,6-dihydro-6-oxopyrimidin-2-yl)-4-n-propoxyphenyl)-2,2,2-trifluoroacetamide]	2.77	2.77	10.4	3.77	–
CCCOc1ccc(NC(=O)CC(=O)OCC)cc1-c1nc(CC)c(CC)c(=O)[nH]1 [Example 102, ethyl N-(3-(4,5-diethyl-1,6-dihydro-6-oxopyrimidin-2-yl)-4-n-propoxyphenyl)aminoformylacetate]	4.61	4.61	24.6	5.33	–
CCCOc1ccc(NC(=O)CCCNC(C)=O)cc1-c1nc(CC)c(CC)c(=O)[nH]1 [Example 107, 4-Acetamido-N-(3-(4,5-diethyl-1,6-dihydro-6-oxopyrimidin-2-yl)-4-n-propoxyphenyl)butyramide]	0.92	0.92	6.42	22.64	–
CCCOc1ccc(NC(=O)C(Cc2ccccc2)NC(C)=O)cc1-c1nc(CC)c(CC)c(=O)[nH]1 (stereo not drawn) [Example 110, 2-acetamido-N-(3-(4,5-diethyl-1,6-dihydro-6-oxopyrimidin-2-yl)-4-n-propoxyphenyl)-3-phenylpropionamide]	2.85	2.85	22.2	7.80	–
CCCOc1ccc(S(=O)(=O)NCCS(=O)(=O)O)cc1-c1nc(CC)c(CC)c(=O)[nH]1 [Example 125, 2-(N-(3-(4,5-diethyl-1,6-dihydro-6-oxopyrimidin-2-yl)-4-n-propoxyphenyl)sulfonyl)aminoethylsulfonic acid]	0.19	0.19	–	14.6	2.71
CCCOc1ccc(S(=O)(=O)NC(CC(N)=O)C(=O)O)cc1-c1nc(CC)c(CC)c(=O)[nH]1 (stereo not drawn) [Example 126, 2-(N-(3-(4,5-diethyl-1,6-dihydro-6-oxopyrimidin-2-yl)-4-n-propoxyphenyl)sulfonyl)amino-3-aminoformylpropionic acid]	1.79	1.79	54.9	30.7	–
CCCOc1ccc(S(=O)(=O)N2CCN(CCO)CC2)cc1-c1nc(CC)c(CC)c(=O)[nH]1 [Example 133, 5,6-diethyl-2-(2-n-propoxy-5-(4-hydroxyethyl-1-piperazinylsulfonyl)phenyl]pyrimid-4(3H)-one]	1.13	1.31	20.9	15.9	–
CCCOc1ccc(S(=O)(=O)N(CCO)CCN2CCOCC2)cc1-c1nc(CC)c(CC)c(=O)[nH]1 [Example 135, 5,6-diethyl-2-(2-n-propoxy-5-(N-(2-morpholinylethyl)-N-(2-hydroxyethyl)aminosulfonyl)phenyl)pyrimid-4(3H)-one]	1.01	1.01	9.66	9.6	–
CCCOc1ccc(C(=O)NC(CC(N)=O)C(=O)O)cc1-c1nc(CC)c(CC)c(=O)[nH]1 (stereo not drawn) [Example 146, 2-(3-(4,5-diethyl-1,6-dihydro-6-oxopyrimidin-2-yl)-4-n-propoxybenzamido)-3-aminoformylpropionic acid]	0.93	0.93	6.64	7.2	–

Second part, led by results:

IC50 ([1]; PDE5 table) [nM]	IC50 ([1]; as repeated in the PDE6 table) [nM]	IC50 [2, 3] [nM]	PDE6 IC50/PDE5 IC50 [2]	SMILES	IC50 [2] [nM]
0.54	0.54	5.73	6.99	CCCOc1ccc(NC(=O)C2CCCN2C(C)=O)cc1-c1nc(CC)c(CC)c(=O)[nH]1 (stereo not drawn) [Example 108, 1-acetyl-N-(3-(4,5-diethyl-1,6-dihydro-6-oxopyrimidin-2-yl)-4-n-propoxyphenyl)pyrrolidinyl-2-formamide]	–
0.83	0.83	18.7	10.53	CCCOc1ccc(NC(=O)C(N)=O)cc1-c1nc(CC)c(CC)c(=O)[nH]1 [Example 114, N^1-(3-(4,5-diethyl-1,6-dihydro-6-oxopyrimidin-2-yl)-4-n-propoxyphenyl)oxalamide]	–
0.49	0.49	13.3	27.3	CCCOc1ccc(S(=O)(=O)NC(C)C(=O)OCC)cc1-c1nc(CC)c(CC)c(=O)[nH]1 (stereo not drawn) [Example 123, ethyl 2-(N-(3-(4,5-diethyl-1,6-dihydro-6-oxopyrimidin-2-yl)-4-n-propoxyphenyl)sulfonyl)aminopropionate]	–
0.13	0.13	3.76	28.6	CCCOc1ccc(S(=O)(=O)NCCCS(=O)(=O)O)cc1-c1nc(CC)c(CC)c(=O)[nH]1 [Example 124, 3-(N-(3-(4,5-diethyl-1,6-dihydro-6-oxopyrimidin-2-yl)-4-n-propoxyphenyl)sulfonyl)aminopropylsulfonic acid]	–
0.47	0.47	5.42	11.4	CCCOc1ccc(C(=O)NC(Cc2ccccc2)C(=O)O)cc1-c1nc(CC)c(CC)c(=O)[nH]1 (stereo not drawn) [Example 138, 2-(3-(4,5-diethyl-1,6-dihydro-6-oxopyrimidin-2-yl)-4-n-propoxybenzamido)-3-phenylpropionic acid]	–
0.61	0.61	7.82	12.8	CCCOc1ccc(C(=O)N2CCCC2C(=O)OC)cc1-c1nc(CC)c(CC)c(=O)[nH]1 (stereo not drawn) [Example 139]	–
0.57	0.57	4.25	7.5	CCCOc1ccc(C(=O)NC(Cc2ccc(O)cc2)C(=O)OC)cc1-c1nc(CC)c(CC)c(=O)[nH]1 (stereo not drawn) [Example 140, methyl 2-(3-(4,5-diethyl-1,6-dihydro-6-oxopyrimidin-2-yl)-4-n-propoxybenzamido)-3-(4-hydroxyphenyl)propionate]	–
0.47	0.47	24.2	51.5	CCCOc1ccc(C(=O)NC(C)C(=O)O)cc1-c1nc(CC)c(CC)c(=O)[nH]1 (stereo not drawn) [Example 145, 2-(3-(4,5-diethyl-1,6-dihydro-6-oxopyrimidin-2-yl)-4-n-propoxybenzamido)propionic acid]	–
0.52	0.52	2.78	5.3	CCCOc1ccc(C(=O)NC(Cc2ccccc2)C(=O)OC)cc1-c1nc(CC)c(CC)c(=O)[nH]1 (stereo not drawn) [Example 150, methyl 2-(3-(4,5-diethyl-1,6-dihydro-6-oxopyrimidin-2-yl)-4-n-propoxybenzamido)-3-phenylpropionate]	–
